Results on 27 compounds are retold here after patent US20250332173A1, “COMPOUNDS AND METHODS FOR MODULATING NUCLEIC ACID SPLICING” (REMIX THERAPEUTICS INC., priority 2021, published 2025).

Type in all cases: cell-based, human
The test system of one experiment is MYB. Kind of experiment: HiBiT protein abundance assay, MYB HiBiT K562 cell line. Conditions: HiBiT K562 cell line, 24 hours, top dose 10 μM; read-out: Effect on protein abundance, MYB (IC50 category). The method, boiled down: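 K562 knock-in lines with endogenous HiBiT-tagged target, 10,000 cells/well in IMDM + FBS, treated 24 h at 37° C with 10-point 3-fold dilutions (top 10 μM final; DMSO ≤0.25%). Lytic Nano-Glo HiBiT luminescence normalized to untagged K562 baseline and DMSO controls; IC50 = concentration giving 50% abundance via four-parameter fit.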
(In general: The HiBiT peptide binds its large partner to form an active luciferase.)

Experiment [1] deals with Target C. Nature of the experiment: HiBiT protein abundance assay, Target C (Promega Nano-Glo HiBiT Lytic Detection System, knock-in K562 cell line). As to conditions: Homo sapiens, K562, 24 h, HiBiT K562 cell line, 24 hours, top dose 10 μM; read-out: Effect on protein abundance, Target C (IC50 category). In outline: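 Knock-in K562 cells carrying HiBiT-tagged Target C, 10,000 per well, treated 24 h at 37 °C with 10-point threefold dilutions (top 10 μM final, ≤0.25% DMSO). Lytic HiBiT luminescence read; response normalised to unmodified K562 and DMSO controls, four-parameter fit interpolated at 50% for IC50.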

The test system of experiment [2] is Target C. Nature of the experiment: RT-qPCR splicing assay panel, Target C canonical junction (CJ) mRNA. As to conditions: Homo sapiens; Table 5 panel; canonical junction qPCR; compound concentration having 50% response in CJ decrease; read-out: Target C IC50 (decrease in CJ mRNA levels). In outline: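 Exposure: 24 h, 37 °C, 11-point 3-fold dilutions from 10 uM final, DMSO at or below 0.25%, in A673 or K562 cells. Detection: cell-lysate RT-qPCR of canonical junction mRNA relative to GAPDH, GUSB or PPIA.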
Background: In qPCR the cycle at which signal appears reflects the starting amount.

What is called IC50 is the concentration that inhibits the measured activity by half.

As to `Cn1cc2cc(-c3cc(F)c4c(=O)n(C5CCNC6(CC6)C5)ccc4c3)c(O)c(F)c2n1` (stereo not drawn) [Compound 420, 2-{4-azaspiro[2.5]octan-7-yl}-8-fluoro-6-(7-fluoro-6-hydroxy-2-methylindazol-5-yl)isoquinolin-1-one], the IC50 in the experiment on MYB lay in the range of 0.1 to 1 µM; in the experiment with Target C [1], 1 to 10 µM; with Target C [2] it was 1 to 10 µM.
`Cc1cn2cc(-c3cc(F)c4c(=O)n(C5CCNC6(CC6)C5)ccc4c3)c(O)c(C)c2n1` (stereo not drawn) [Compound 421, 2-{4-azaspiro[2.5]octan-7-yl}-8-fluoro-6-{7-hydroxy-2,8-dimethylimidazo[1,2-a]pyridin-6-yl}isoquinolin-1-one]: the half-maximal inhibitory concentration (IC50) in the experiment on MYB, in the experiment with Target C [1] and in the experiment with Target C [2] was greater than 10 µM in each case.
Regarding `Cc1cn2nc(-c3cc(C)c4c(=O)n(C5CCNC6(CC6)C5)ncc4c3)cc(C)c2n1` (stereo not drawn) [Compound 423, 6-(2,8-dimethylimidazo[1,2-b]pyridazin-6-yl)-8-methyl-2-(4-azaspiro[2.5]octan-7-yl)phthalazin-1(2H)-one], the IC50 with MYB is less than 0.1 µM; in the experiment on Target C [1], less than 0.1 µM; in the experiment on Target C [2], 0.1 to 1 µM.
Take `Cc1cn2cc(-c3cc(F)c4c(=O)n(C5CCNC6(CC6)C5)ccc4c3)ncc2n1` (stereo not drawn) [Compound 428, 8-fluoro-6-(2-methylimidazo[1,2-a]pyrazin-6-yl)-2-(4-azaspiro[2.5]octan-7-yl)isoquinolin-1(2H)-one]: the IC50 is 0.1 to 1 µM in the experiment with MYB, 1 to 10 µM with Target C [1] and 1 to 10 µM in the experiment with Target C [2].
Take `Cc1cc(-c2cc(F)c3c(=O)n(C4CCNC5(CC5)C4)ccc3c2)cc2c1nc(C)n2C` (stereo not drawn) [Compound 429]: the IC50 is 1 to 10 µM with MYB, 0.1 to 1 µM in the experiment with Target C [1] and greater than 10 µM in the experiment with Target C [2].
For `Cc1nc2c(F)cc(-c3cc(F)c4c(=O)n(C5CCNC6(CC6)C5)ccc4c3)cc2n1C` (stereo not drawn) [Compound 430, 8-fluoro-6-(4-fluoro-1,2-dimethyl-1H-benzo[d]imidazol-6-yl)-2-(4-azaspiro[2.5]octan-7-yl)isoquinolin-1(2H)-one], the IC50 in the experiment with MYB is 1 to 10 µM; in the experiment on Target C [1], greater than 10 µM; in the experiment with Target C [2], greater than 10 µM.
On to `Cc1cc(-c2cc(F)c3c(=O)n(C4CCNC5(CC5)C4)ccc3c2)nc2cn(C)nc12` (stereo not drawn) [Compound 431], for which the IC50 with MYB is less than 0.1 µM; in the experiment with Target C [1], less than 0.1 µM; in the experiment with Target C [2], 0.1 to 1 µM.
In the case of `Cc1cn2nc(-c3cc(O)c4c(=O)n(C5CCNC5)ccc4c3)cc(C)c2n1` (stereo not drawn) [Compound 432, 6-{2,8-dimethylimidazo[1,2-b]pyridazin-6-yl}-8-hydroxy-2-(pyrrolidin-3-yl)isoquinolin-1-one], the IC50 was less than 0.1 µM in the experiment with MYB, 1 to 10 µM with Target C [1] and 1 to 10 µM with Target C [2].
Consider `Cc1cn2cc(-c3cc(O)c4c(=O)n(C5CCNC5)ccc4c3)cc(C#N)c2n1` (stereo not drawn) [Compound 433, 6-(8-hydroxy-1-oxo-2-(pyrrolidin-3-yl)-1,2-dihydroisoquinolin-6-yl)-2-methylimidazo[1,2-a]pyridine-8-carbonitrile], for which the IC50 is 1 to 10 µM in the experiment with MYB, greater than 10 µM with Target C [1] and 0.1 to 1 µM with Target C [2].
The like results for `Cc1cn2cc(-c3cc(F)c4c(=O)n(C5CCNC5)ccc4c3)cc(C#N)c2n1` (stereo not drawn) [Compound 434, 6-[8-fluoro-1-oxo-2-(pyrrolidin-3-yl)isoquinolin-6-yl]-2-methylimidazo[1,2-a]pyridine-8-carbonitrile] were, in that order, 1 to 10 µM, greater than 10 µM and greater than 10 µM.
For `Cc1cn2cc(-c3ccc4c(=O)n(C5CCNCC5)cc(C)c4c3)cc(F)c2n1` [Compound 440, 6-{8-fluoro-2-methylimidazo[1,2-a]pyridin-6-yl}-4-methyl-2-(piperidin-4-yl)isoquinolin-1-one] the same measures were less than 0.1 µM, 0.1 to 1 µM and 0.1 to 1 µM.
For `Cc1cn2cc(-c3ccc4c(=O)n(C5CCNC5)cc(C)c4c3)cc(F)c2n1` (stereo not drawn) [Compound 441, 6-{8-fluoro-2-methylimidazo[1,2-a]pyridin-6-yl}-4-methyl-2-(pyrrolidin-3-yl)isoquinolin-1-one] the same measures were 1 to 10 µM, greater than 10 µM and greater than 10 µM.
Turning to `Cc1cn2cc(-c3ccc4c(=O)n(C5CCNC5)cc(C)c4c3)cc(C#N)c2n1` (stereo not drawn) [Compound 442, 2-methyl-6-[4-methyl-1-oxo-2-(pyrrolidin-3-yl)isoquinolin-6-yl]imidazo[1,2-a]pyridine-8-carbonitrile], the IC50 in the experiment with MYB, with Target C [1] and in the experiment on Target C [2] was greater than 10 µM each time.
For `Cc1cn2nc(-c3ccc4c(=O)n([C@H]5CCNC6(CC6)C5)ccc4c3)cc(C)c2n1` [Compound 445], the IC50 in the experiment with MYB, with Target C [1] and with Target C [2] was less than 0.1 µM each time.
`Cc1cn2nc(-c3cc(F)c4c(=O)n([C@@H]5CCNC6(CC6)C5)ncc4c3)cc(C)c2n1` [Compound 446]: the IC50 with MYB, in the experiment on Target C [1] and in the experiment on Target C [2] was less than 0.1 µM throughout.
As to `Cc1cn2nc(-c3cc(F)c4c(=O)n([C@H]5CCNC6(CC6)C5)ncc4c3)cc(C)c2n1` [Compound 447], the IC50 in the experiment on MYB, in the experiment on Target C [1] and in the experiment on Target C [2] was less than 0.1 µM in each case.
Regarding `Cc1cn2nc(-c3cc4ccn(C5CCNCC5)c(=O)c4cc3O)cc(C)c2n1` [Compound 448, 6-{2,8-dimethylimidazo[1,2-b]pyridazin-6-yl}-7-hydroxy-2-(piperidin-4-yl)isoquinolin-1-one], the IC50 in the experiment on MYB, in the experiment with Target C [1] and in the experiment on Target C [2] was less than 0.1 µM each time.
Take `COc1cc2c(=O)n(C3CCNCC3)ccc2cc1-c1cc(C)c2nc(C)cn2n1` [Compound 449, 6-{2,8-dimethylimidazo[1,2-b]pyridazin-6-yl}-7-methoxy-2-(piperidin-4-yl)isoquinolin-1-one]: the IC50 with MYB, with Target C [1] and in the experiment with Target C [2] was greater than 10 µM each time.
For the compound `Cc1cn2cc(-c3ccc4c(=O)n([C@@H]5CCNC5)cc(C)c4c3)cc(F)c2n1` [Compound 452, (R)-6-(8-fluoro-2-methylimidazo[1,2-a]pyridin-6-yl)-4-methyl-2-(pyrrolidin-3-yl)isoquinolin-1(2H)-one], the IC50 was 1 to 10 µM in the experiment with MYB, greater than 10 µM in the experiment with Target C [1] and greater than 10 µM in the experiment with Target C [2].
As to `Cc1cn2c(n1)CCC(c1ccc3c(=O)n(C4CCNCC4)ccc3c1)C2` (stereo not drawn) [Compound 453, 6-{2-methyl-5H,6H,7H,8H-imidazo[1,2-a]pyridin-6-yl}-2-(piperidin-4-yl)isoquinolin-1-one], the IC50 with MYB, in the experiment on Target C [1] and with Target C [2] was greater than 10 µM in each case.
As for `Cc1cn2cc(-n3ccc4cc(N5C[C@@H](C)N[C@@H](C)C5)ccc4c3=O)nc(C)c2n1` [Compound 454, 2-{2,8-dimethylimidazo[1,2-a]pyrazin-6-yl}-6-[(3R,5S)-3,5-dimethylpiperazin-1-yl]isoquinolin-1-one], the IC50 in the experiment with MYB, in the experiment with Target C [1] and in the experiment on Target C [2] was greater than 10 µM throughout.
For `Cc1cn2cc(-c3ccc4c(=O)n([C@H]5CCNC5)cc(C)c4c3)cc(C#N)c2n1` [Compound 456, (S)-2-methyl-6-(4-methyl-1-oxo-2-(pyrrolidin-3-yl)-1,2-dihydroisoquinolin-6-yl)imidazo[1,2-a]pyridine-8-carbonitrile], the IC50 in the experiment with MYB was 1 to 10 µM; in the experiment with Target C [1], greater than 10 µM; in the experiment with Target C [2] it was greater than 10 µM.
Turning to `Cc1cn2cc(-c3cc(F)c4c(=O)n(C5CCNCC5)cc(C)c4c3)cc(F)c2n1` [Compound 461, 8-fluoro-6-{8-fluoro-2-methylimidazo[1,2-a]pyridin-6-yl}-4-methyl-2-(piperidin-4-yl)isoquinolin-1-one], the IC50 with MYB is less than 0.1 µM; in the experiment with Target C [1], 0.1 to 1 µM; in the experiment with Target C [2], 0.1 to 1 µM.
With `Cc1cn2nc(-c3cc(O)c4c(=O)n(C5CCNC5)cc(C)c4c3)cc(C)c2n1` (stereo not drawn) [Compound 462], the IC50 is 0.1 to 1 µM with MYB, 1 to 10 µM in the experiment on Target C [1] and greater than 10 µM with Target C [2].
For `Cn1cc2c(n1)CCN(c1ccc3c(=O)n(C4CCNCC4)ccc3c1)C2` [Compound 509, 6-{2-methyl-4H,6H,7H-pyrazolo[4,3-c]pyridin-5-yl}-2-(piperidin-4-yl)isoquinolin-1-one] the same measures were greater than 10 µM, greater than 10 µM and greater than 10 µM.
With `Cc1cn2cc(-c3ccc4c(=O)n(C5CCNC6(CC6)C5)ncc4c3)cc(Cl)c2n1` (stereo not drawn) [Compound 510], the IC50 with MYB, in the experiment with Target C [1] and in the experiment on Target C [2] was 1 to 10 µM each time.
For `Cn1cc2nc(-c3ccc4c(=O)n(C5CCNC6(CC6)C5)ncc4c3)ccc2n1` (stereo not drawn) [Compound 511], the IC50 with MYB was in the range of 0.1 to 1 µM; in the experiment on Target C [1], 0.1 to 1 µM; with Target C [2] it was 1 to 10 µM.
